The source of these data is patent US9655838B2, “Antimicrobial compositions comprising essential oil combinations” (priority 2013, dated 2017).

Read-outs that look alike come from different tables or passages of the source.

For data set [1], the system named is A. viscosus. Kind of data set: Determination of MIC of individual essential oils (broth microdilution, O.D. at 610 nm). In kind it is cell-based, A. viscosus ATCC 43146. The following applies: for MIC: Actinomyces viscosus. On the procedure: Minimum inhibitory concentration (MIC) is assessed as follows: A 96-well microtiter plate is inoculated with 100 μl of TSB (Tryptic Soy Broth) media in each well. Stock solutions of the active are prepared as required (w/v basis) in percent. The different stock solutions (>1%) are used to achieve the final MIC concentration of the actives. The positive control (Triclosan) is prepared as a 0.1% stock solution. Each active is diluted 1:10 using sterile TSB. 100 μl of the stock solution is added in the first column for the actives and the controls. Transfer 100 μl of the solution from the first column to the next, mix and repeat the transfer to serially dilute 2-fold across the plate. The last 100 μl is discarded. Prepare 0.2-0.3 O.D. activated culture of A. viscosus ATCC 43146 grown in TSB overnight at 37° C. Add 100 μl of the adjusted bacterial culture to each well. Incubate the plates for 24 hours at 37° C. Determine the growth by measuring the O.D. at 610 nm. The data is transferred to an Excel spreadsheet for comparison of the O.D. values. The concentration higher than the lowest concentration with large increment in O.D. is taken as the MIC. Depending on the value obtained the MIC is repeated using higher or lower concentrations of the stock solution. This gives the closest value of the concentration determined by serial dilution at which the microorganism is inhibited (MIC).
Background: Dilution methods test growth across graded concentrations, often in twofold steps.

For data set [2] the following is noted: cited from earlier work.
[3] abbreviates: individual essential oils against A. viscosus, 24 hours at 37° C, read-out: MIC value (ppm).
[4] abbreviates: Table 3, essential oil alone, read-out: Individual MIC (concentration of each essential oil alone necessary to produce the same effect).
The mark [5] stands for this setting: individual essential oils against A. viscosus, 24 hours at 37° C.

With `OCc1ccccc1` [Benzyl alcohol], in data set [1] (setting [3]), the MIC stood at 700 µg/mL.
Consider `Cc1ccc(C(C)C)cc1O` [Carvacrol, carvacrol], for which the MIC in data set [1] (24 h, read-out: MIC value (ppm)) amounted to 80 µg/mL; in data set [1] (read-out: Individual MIC (concentration of each essential oil alone necessary to produce the same effect)), 80 µg/mL. Also, the “Individual MIC (concentration of each essential oil alone necessary to produce the same effect)” value in data set [1] (Table 3, essential oil alone) was determined as 80 ppm.
With `CC(C)=CCCC(C)=CC=O` [Citral], the MIC in data set [1] (setting [4]) and in data set [1] (setting [3]) was 250 µg/mL throughout.
Consider `CCCc1ccc(O)c(OC)c1` [Dihydro-eugenol], for which, in data set [1] (setting [5]), the “MIC value (ppm)” value is given as 500 ppm.
Regarding `CC12CCC(CC1)C(C)(C)O2` [Eucalyptol], the MIC in data set [1] (setting [3]) came to 250 µg/mL.
Still for that read-out and setting: in the case of `C=CCc1ccc(O)c(OC)c1` [Eugenol] it was 2000 µg/mL.
With `Cc1cc(O)ccc1C(C)C` [IPMP (99.8% pure)], the “MIC value (ppm)” value in data set [1] (setting [5]) is reported as 160 ppm.
As for `COC(=O)c1ccccc1O` [Methyl salicylate], the MIC in data set [1] (setting [3]) is 1000 µg/mL.
As to `Cc1ccc(C(C)C)c(O)c1` [Thymol (98% pure), Thymol], the MIC in data set [1] (setting [4]) and in data set [1] (setting [3]) was 900 µg/mL throughout.
For `O=C([O-])CC(O)(CC(=O)[O-])C(=O)[O-].O=C([O-])CC(O)(CC(=O)[O-])C(=O)[O-].[Zn+2].[Zn+2].[Zn+2]` [Zinc citrate], the “MIC value (ppm)” value in data set [1] (setting [5]) is given as 160 ppm.
For `[O]=[Zn]` [Zinc oxide], in data set [1] (setting [5]), the “MIC value (ppm)” value came out at 625 ppm.
Regarding `CC(C)=CCC[C@](C)(O)[C@@H]1CC=C(C)CC1` [bisabolol, α-(−)-bisabolol], in data set [2] (ethanol), the Solubility in ethanol entry is on record as “soluble”. Also, the “Solubility in water and glycerin” value in data set [2] (water and glycerin) is “almost insoluble”.
Take Catechins hydrate: in data set [1] (setting [5]), the “MIC value (ppm)” value turned out to be 100 ppm.
On to α-(±)-bisabolol [Syn. Bisabolol], for which the “Individual MIC (concentration of each essential oil alone necessary to produce the same effect)” value in data set [1] (Table 3, essential oil alone) was determined as 125 ppm. In data set [1] (setting [5]), the “MIC value (ppm)” value is reported as 125 ppm.
